Source: ChEMBL document CHEMBL1157002, “SAR of a series of inhaled A(2A) agonists and comparison of inhaled pharmacokinetics in a preclinical model with clinical pharmacokinetic data” (Bioorg Med Chem Lett, 2009)
pIC50: −log10 of the molar value. One block for each compound: values may come before it. The source made the active and inactive calls. The calls are words filed in the database; no cut-off is given here.

Key:
Adenosine receptor A2a = Adenosine receptor A2a (Homo sapiens, UniProt P29274)
Description: Agonist activity at adenosine A2A receptor in fMLP-stimulated human neutrophils assessed as inhibition of superoxide production by colorimetric analysis

Rattus norvegicus [1] = experiment: Unbound clearance in rat at 1 mg/kg, iv; format: ADME, organism-based; design: dose 1 mg/kg, route intravenous; conditions: in vivo
Homo sapiens [2] = experiment: Dose normalized fCmax in human at 400 ug administered by aerosol device measured up to 4 hrs (dose normalized to 1 mg/kg); format: ADME, organism-based; design: dose 1 mg/kg; conditions: in vivo
Homo sapiens [3] = experiment: Dose normalized fCmax in human at 1600 ug administered by aerosol device measured up to 4 hrs (dose normalized to 1 mg/kg); format: ADME, organism-based; design: dose 1 mg/kg; conditions: in vivo
[4] = Half life in human at 100 to 1600 ug administered by aerosol device; format: ADME, organism-based; conditions: in vivo, inhaled or intranasal
Rattus norvegicus [5] = experiment: Dose normalized fCmax in rat (dose normalized to 1 mg/kg); format: ADME, organism-based; design: dose 1 mg/kg; conditions: in vivo
Homo sapiens [6] = experiment: Dose normalized fCmax in human at 800 ug administered by aerosol device measured up to 4 hrs (dose normalized to 1 mg/kg); format: ADME, organism-based; design: dose 1 mg/kg; conditions: in vivo
[7] = Intrinsic clearance in human liver microsomes; format: ADME, Microsome
Cavia porcellus [8] = organism: Cavia porcellus; experiment: Inhibition of capsaicin-induced bronchoconstriction in guinea pig at 10 ug up to 8 hrs; format: functional, organism-based
Homo sapiens [9] = experiment: Toxicity in human assessed as increase of sitting blood pressure at 200 to 1600 ug administered by aerosol device; format: organism-based; conditions: in vivo, inhaled_or_intranasal
Homo sapiens [10] = experiment: Dose normalized fCmax in human at 100 ug administered by aerosol device measured up to 4 hrs (dose normalized to 1 mg/kg); format: ADME, organism-based; design: dose 1 mg/kg; conditions: in vivo
Homo sapiens [11] = experiment: Dose normalized fCmax in human at 200 ug administered by aerosol device measured up to 4 hrs (dose normalized to 1 mg/kg); format: ADME, organism-based; design: dose 1 mg/kg; conditions: in vivo
[12] = Lipophilicity, log D at pH 7.4; format: physicochemical; conditions: buffer
Cavia porcellus [13] = experiment: Toxicity in it dosed guinea pig assessed as decrease of diastolic blood pressure; format: organism-based, Artery; conditions: in vivo, inhaled_or_intranasal
Cavia porcellus [14] = experiment: Inhibition of capsaicin-induced bronchoconstriction in it dosed guinea pig up to 5 hrs; format: functional, organism-based

Adenosine receptor A2a, sequence (P29274 whole entry): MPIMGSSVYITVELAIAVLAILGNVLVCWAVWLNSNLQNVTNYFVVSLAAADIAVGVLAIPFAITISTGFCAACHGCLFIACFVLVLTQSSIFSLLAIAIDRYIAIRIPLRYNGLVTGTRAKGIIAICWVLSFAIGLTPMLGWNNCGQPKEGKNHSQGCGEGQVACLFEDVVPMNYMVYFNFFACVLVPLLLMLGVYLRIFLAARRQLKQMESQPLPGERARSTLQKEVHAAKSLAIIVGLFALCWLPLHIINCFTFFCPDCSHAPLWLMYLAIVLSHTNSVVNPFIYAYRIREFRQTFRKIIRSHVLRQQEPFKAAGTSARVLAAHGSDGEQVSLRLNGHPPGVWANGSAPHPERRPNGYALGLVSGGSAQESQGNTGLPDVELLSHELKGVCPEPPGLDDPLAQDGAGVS

Structure (SMILES): CCNC(=O)[C@H]1O[C@@H](n2cnc3c(NCC(c4ccccc4)c4ccccc4)nc(C(=O)NCCNC(=O)NC4CCN(c5ccccn5)CC4)nc32)[C@H](O)[C@@H]1O [UK432097]
CL free (Rattus norvegicus [1]): 330 L/h/kg
Cmax_unbound (Homo sapiens [2]): 0.19 nM
Cmax_unbound (Homo sapiens [3]): 0.12 nM
half-life [4]: 3 h
Cmax_unbound (Rattus norvegicus [5]): 0.2 nM
Cmax_unbound (Homo sapiens [6]): 0.19 nM
microsomal CLint [7]: > 255 µL/min/mg
Activity (Cavia porcellus [8]): Active
Activity (Homo sapiens [9]): Toxic
Cmax_unbound (Homo sapiens [10]): 0.45 nM
Cmax_unbound (Homo sapiens [11]): 0.3 nM

Structure (SMILES): CCNC(=O)[C@H]1O[C@@H](n2cnc3c(NCC(c4ccccc4)c4ccccc4)nc(C(=O)NCCNC(=O)NCc4ccccc4)nc32)[C@H](O)[C@@H]1O
pIC50 (Adenosine receptor A2a): 8.22

Structure (SMILES): CCNC(=O)[C@H]1O[C@@H](n2cnc3c(NCC(c4ccccc4)c4ccccc4)nc(CNC(=O)NCCN(C(C)C)C4CCCC4)nc32)[C@H](O)[C@@H]1O
CL free (Rattus norvegicus [1]): 210 L/h/kg
Cmax_unbound (Rattus norvegicus [5]): 1.8 nM
logD [12]: 2

Structure (SMILES): CCNC(=O)[C@H]1O[C@@H](n2cnc3c(NCC(c4ccccc4)c4ccccc4)nc(C(=O)NCCNC(=O)NCc4ccc(C(=O)O)cc4)nc32)[C@H](O)[C@@H]1O
pIC50 (Adenosine receptor A2a): 9.40

Structure (SMILES): CCNC(=O)[C@H]1O[C@@H](n2cnc3c(NCC(c4ccccc4)c4ccccc4)nc(C(=O)NCCNC(=O)NCc4ccc(CN(CC)CC)cc4)nc32)[C@H](O)[C@@H]1O
pIC50 (Adenosine receptor A2a): 8.30

Structure (SMILES): CCNC(=O)[C@H]1O[C@@H](n2cnc3c(NCC(c4ccccc4)c4ccccc4)nc(C(=O)NCCNC(=O)NCCN(C(C)C)C(C)C)nc32)[C@H](O)[C@@H]1O
CL free (Rattus norvegicus [1]): 45 L/h/kg
pIC50 (Adenosine receptor A2a): 8.30
Cmax_unbound (Rattus norvegicus [5]): 12.3 nM
microsomal CLint [7]: 81 µL/min/mg
logD [12]: 0.9

Structure (SMILES): CCNC(=O)[C@H]1O[C@@H](n2cnc3c(NCC(c4ccccc4)c4ccccc4)nc(C(=O)NCCNC(=O)NCc4ccccn4)nc32)[C@H](O)[C@@H]1O
pIC50 (Adenosine receptor A2a): 8.40

Structure (SMILES): CCNC(=O)[C@H]1O[C@@H](n2cnc3c(NCC(c4ccccc4)c4ccccc4)nc(CNC(=O)NCCN4CCCCC4)nc32)[C@H](O)[C@@H]1O
Activity (Cavia porcellus [13]): Non-toxic
Activity (Cavia porcellus [14]): Active

Further compounds by rising pIC50 (Adenosine receptor A2a), results first:

pIC50 (Adenosine receptor A2a): 6.52
Structure (SMILES): CCNC(=O)[C@H]1O[C@@H](n2cnc3c(NCC(c4ccccc4)c4ccccc4)nc(C(=O)NCCN(C)C(=O)NCCN4CCCCC4)nc32)[C@H](O)[C@@H]1O

pIC50 (Adenosine receptor A2a): 7.35
Structure (SMILES): O=C(NCCNC(=O)c1nc(NCC(c2ccccc2)c2ccccc2)c2ncn([C@@H]3O[C@H](CO)[C@@H](O)[C@H]3O)c2n1)NCCN1CCCCC1

pIC50 (Adenosine receptor A2a): 8.00
Structure (SMILES): CCNC(=O)[C@H]1O[C@@H](n2cnc3c(NCC(c4ccccc4)c4ccccc4)nc(C(=O)NCCNC(=O)NCCN4CCc5ccccc5C4)nc32)[C@H](O)[C@@H]1O

pIC50 (Adenosine receptor A2a): 8.00
Structure (SMILES): CCNC(=O)[C@H]1O[C@@H](n2cnc3c(NCC(c4ccccc4)c4ccccc4)nc(C(=O)NCCNC(=O)NCCc4ccccc4)nc32)[C@H](O)[C@@H]1O

pIC50 (Adenosine receptor A2a): 8.15
Structure (SMILES): CCNC(=O)[C@H]1O[C@@H](n2cnc3c(NCC(c4ccccc4)c4ccccc4)nc(C(=O)NCCNC(=O)NCCN(C(C)C)C4CCCC4)nc32)[C@H](O)[C@@H]1O

pIC50 (Adenosine receptor A2a): 8.30
Structure (SMILES): CCNC(=O)[C@H]1O[C@@H](n2cnc3c(NCC(c4ccccc4)c4ccccc4)nc(C(=O)NCCNC(=O)NCCN4CCCCC4)nc32)[C@H](O)[C@@H]1O
